Reference: patent US20110152228A1, “SPRAYABLE PHARMACEUTICAL COMPOSITIONS COMPRISING A CORTICOID AND AN OILY PHASE” (Galderma, S.A., priority 2005, published 2011)

Key:
[1] = Maximum solubility of clobetasol propionate in solvent oils, assessed visually (clarity/cloudiness); format: physicochemical
Protocol: (§1) The maximum solubility of clobetasol propionate was studied in various solvent oils according to the invention, in order to allow the choice most suitable for the concentration of active agent to be solubilized.
The solubility can also be assessed visually. Thus, minute proportions of the active agent are gradually added to the solvent oil with stirring. Visual observation of the clarity of the solution is carried out.

[2] = Maximum solubility of clobetasol propionate in solvent oils, UV assaying method; format: physicochemical
Protocol: as §1
It is measured by the UV assaying method.
Saturated solutions are prepared according to the following protocol:
0.1% of clobetasol propionate is added to the oily excipient.
The entire mixture is stirred overnight and then left for two hours without stirring.
The solutions for UV-assaying are then prepared by taking the supernatant 0.1 g of this saturated solution is weighed into a 100 ml volumetric flask and then made up to 100 ml with absolute ethanol. The assaying makes it possible to obtain data for maximum solubility of the active agent in the solvent oil under consideration.

- Visual solubility ([1]; solvent: Caprylic/capric triglycerides, maximum solubility): 0.25%
- Visual solubility ([1]; solvent: Dioctyl ether): insoluble
- Visual solubility ([1]; solvent: Isopropyl palmitate, maximum solubility): 0.14%
- Visual solubility ([1]; solvent: Octyldodecanol, maximum solubility): 0.16%
- UV Solubility at 266 nm ([2]; solvent: Cetearyl isononanoate): 0.16%
- UV Solubility at 266 nm ([2]; solvent: Dioctyl ether): 0.12%
- UV Solubility at 266 nm ([2]; solvent: Ethyl oleate): 0.79%
- UV Solubility at 266 nm ([2]; solvent: Isopropyl palmitate): 0.17%
- UV Solubility at 266 nm ([2]; solvent: Oleic acid): 0.45%
- UV Solubility at 266 nm ([2]; solvent: Oleyl alcohol): 0.86%
SMILES: CCC(=O)O[C@]1(C(=O)CCl)[C@@H](C)C[C@H]2[C@@H]3CCC4=CC(=O)C=C[C@]4(C)[C@@]3(F)[C@@H](O)C[C@@]21C [clobetasol propionate]
